From US12077503B2, “Substituted cyclic amides and their use as herbicides” (FMC CORPORATION, priority 2015, dated 2024)

Tests used:
Type in all cases: in vivo
[1] = system: pigweed (Amaranthus retroflexus); assay: Test A postemergence; conditions: Amaranthus retroflexus, post-emergence, 240 h, read-out: Pigweed plant response rating (0 to 100 scale)
Summary of the method: (§1)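 Seeds sprayed preemergence with a directed soil spray, or plants at 2 to 10 cm height and one- to two-leaf stage sprayed postemergence, with test chemicals in a non-phytotoxic solvent mixture containing surfactant, in loam soil–sand blend. Injury rated visually against untreated controls after about 10 d in greenhouse, 0 (no effect) to 100 (complete control).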

[2] = system: wheat (Triticum aestivum); assay: Test A postemergence; conditions: Triticum aestivum, post-emergence, 240 h, read-out: Wheat plant response rating (0 to 100 scale)
Summary of the method: as §1

[3] = system: ryegrass, Italian (Italian ryegrass, Lolium multiflorum); assay: Test A postemergence; conditions: Lolium multiflorum, post-emergence, 240 h, read-out: Ryegrass, Italian plant response rating (0 to 100 scale)
Summary of the method: as §1

[4] = system: barnyardgrass (Echinochloa crus-galli); assay: Test A postemergence; conditions: Echinochloa crus-galli, post-emergence, 240 h, read-out: Barnyardgrass plant response rating (0 to 100 scale)
Summary of the method: as §1

[5] = system: blackgrass (Alopecurus myosuroides); assay: Test A postemergence; conditions: Alopecurus myosuroides, post-emergence, 240 h, read-out: Blackgrass plant response rating (0 to 100 scale)
Summary of the method: as §1

[6] = system: Galium (catchweed bedstraw, Galium aparine); assay: Test A postemergence; conditions: Galium, post-emergence, 240 h, read-out: Galium plant response rating (0 to 100 scale)
Summary of the method: as §1

[7] = system: corn (Zea mays); assay: Test A postemergence; conditions: Zea mays, post-emergence, 240 h, read-out: Corn plant response rating (0 to 100 scale)
Summary of the method: as §1

[8] = system: Kochia (Kochia scoparia); assay: Test A postemergence; conditions: Bassia scoparia, post-emergence, 240 h, read-out: Kochia plant response rating (0 to 100 scale)
Summary of the method: as §1

[9] = system: ragweed (common ragweed, Ambrosia elatior); assay: Test A postemergence; conditions: Ambrosia artemisiifolia, post-emergence, 240 h, read-out: Ragweed plant response rating (0 to 100 scale)
Summary of the method: as §1

[10] = system: giant foxtail (Setaria faberii); assay: Test A postemergence; conditions: Setaria faberi, post-emergence, 240 h, read-out: Foxtail, Giant plant response rating (0 to 100 scale)
Summary of the method: as §1

[11] = system: pigweed (Amaranthus retroflexus); assay: Test A preemergence; conditions: Amaranthus retroflexus, pre-emergence, 240 h, 0 to 100 scale where 0 is no effect and 100 is complete control, read-out: Pigweed plant response rating
[12] = system: ryegrass, Italian (Italian ryegrass, Lolium multiflorum); assay: Test A preemergence; conditions: Lolium multiflorum, pre-emergence, 240 h, 0 to 100 scale where 0 is no effect and 100 is complete control, read-out: Ryegrass, Italian plant response rating
Summary of the method: as §1

[13] = system: barnyardgrass (Echinochloa crus-galli); assay: Test A preemergence; conditions: Echinochloa crus-galli, pre-emergence, 240 h, 0 to 100 scale where 0 is no effect and 100 is complete control, read-out: Barnyardgrass plant response rating
Summary of the method: as §1

[14] = system: Kochia (Kochia scoparia); assay: Test A preemergence; conditions: Bassia scoparia, pre-emergence, 240 h, 0 to 100 scale where 0 is no effect and 100 is complete control, read-out: Kochia plant response rating
Summary of the method: as §1

[15] = system: ragweed (common ragweed, Ambrosia elatior); assay: Test A preemergence; conditions: Ambrosia artemisiifolia, pre-emergence, 240 h, 0 to 100 scale where 0 is no effect and 100 is complete control, read-out: Ragweed plant response rating
Summary of the method: as §1

[16] = system: giant foxtail (Setaria faberii); assay: Test A preemergence; conditions: Setaria faberi, pre-emergence, 240 h, 0 to 100 scale where 0 is no effect and 100 is complete control, read-out: Foxtail, Giant plant response rating
Summary of the method: as §1

[17] = system: barnyardgrass (Echinochloa crus-galli); assay: Test B flooded paddy test; conditions: Echinochloa crus-galli, 250 g ai/ha, Flood; 0 to 100 scale where 0 is no effect and 100 is complete control; read-out: Barnyardgrass plant response rating
Summary of the method: (§2)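 Plants at 2-leaf stage flooded to 3 cm above soil, with compounds applied directly to paddy water and that depth maintained. Plants kept in greenhouse 13–15 d. Visual rating versus controls on a 0 (no effect) to 100 (complete control) scale.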

[18] = system: rice (Oryra sativa); assay: Test B flooded paddy test; conditions: Oryza sativa, 250 g ai/ha, Flood; 0 to 100 scale where 0 is no effect and 100 is complete control; read-out: Rice plant response rating
Summary of the method: as §2

[19] = system: ducksalad (Heteranthera limosa); assay: Test B flooded paddy test; conditions: Heteranthera limosa, 250 g ai/ha, Flood; 0 to 100 scale where 0 is no effect and 100 is complete control; read-out: Ducksalad plant response rating
Summary of the method: as §2

[20] = system: sedge, umbrella (small-flower umbrella sedge, Cyperus difformis); assay: Test B flooded paddy test; conditions: Cyperus difformis, 250 g ai/ha, Flood; 0 to 100 scale where 0 is no effect and 100 is complete control; read-out: Sedge, Umbrella plant response rating
Summary of the method: as §2

[21] = 125 g ai/ha, postemergence, visual injury vs untreated controls after approx. 10 d, 0 = no effect, 100 = complete control
[22] = Postemergence, 31 g ai/ha, 0 is no effect, 100 is complete control
[23] = 125 g ai/ha, preemergence, visual injury rating, approximately 10 d

N#Cc1ccc([C@H]2CNC(=O)[C@@H]2C(=O)Nc2cccc(F)c2F)cc1F [Compound 1193]
pest or weed control at 125 g/ha [1, 21]: 0% | pest or weed control at 31 g/ha [1, 22]: 0% | plant injury at 125 g/ha [2, 21]: 0% | plant injury at 31 g/ha [2, 22]: 0% | pest or weed control at 125 g/ha [3, 21]: 0% | pest or weed control at 31 g/ha [3, 22]: 0% | pest or weed control at 125 g/ha [4, 21]: 70% | pest or weed control at 31 g/ha [4, 22]: 0% | pest or weed control at 125 g/ha [5, 21]: 0% | pest or weed control at 31 g/ha [5, 22]: 0% | pest or weed control at 125 g/ha [6, 21]: 0% | pest or weed control at 31 g/ha [6, 22]: 0% | plant injury at 125 g/ha [7, 21]: 0% | plant injury at 31 g/ha [7, 22]: 0% | pest or weed control at 125 g/ha [8, 21]: 0% | pest or weed control at 31 g/ha [8, 22]: 0% | pest or weed control at 125 g/ha [9, 21]: 0% | pest or weed control at 31 g/ha [9, 22]: 0% | pest or weed control at 125 g/ha [10, 21]: 30% | pest or weed control at 31 g/ha [10, 22]: 0% | pest or weed control at 31 g/ha ([11]; 31 g ai/ha, Preemergence): 0% | pest or weed control at 125 g/ha [11, 23]: 0% | pest or weed control at 31 g/ha ([12]; 31 g ai/ha, Preemergence): 0% | pest or weed control at 125 g/ha [12, 23]: 0% | pest or weed control at 31 g/ha ([13]; 31 g ai/ha, Preemergence): 40% | pest or weed control at 125 g/ha [13, 23]: 90% | pest or weed control at 31 g/ha ([14]; 31 g ai/ha, Preemergence): 0% | pest or weed control at 125 g/ha [14, 23]: 0% | pest or weed control at 31 g/ha ([15]; 31 g ai/ha, Preemergence): 0% | pest or weed control at 125 g/ha [15, 23]: 0% | pest or weed control at 31 g/ha ([16]; 31 g ai/ha, Preemergence): 0% | pest or weed control at 125 g/ha [16, 23]: 80% | pest or weed control at 250 g/ha [17]: 75% | pest or weed control at 250 g/ha [18]: 30% | pest or weed control at 250 g/ha [19]: 90% | pest or weed control at 250 g/ha [20]: 0%
